One series deals with P. aeruginosa. The settings on record: 2012, 2013, cited from earlier work.
In series [1] the test system is A. baumannii. Also noted: method as in Visca et al., 2013; de Léséleuc et al., 2012. The settings on record: ref Visca et al., 2013; de Léséleuc et al., 2012; cited from earlier work.
For series [2] the following is noted: cited from earlier work; for iron association constant: ref Bohac et al., 2019, Shapiro and Wencewicz, 2016, Sheldon and Skaar, 2020.
Series [3] has as its system K. pneumoniae. As to the kind of experiment: Dose–response growth inhibition in CAA medium. The series is classed as cell-based, Klebsiella pneumoniae. On the procedure: (§1) Pathogen overnight cultures were grown in either 8 mL tryptic soy broth (TSB; for the two S. aureus strains) or 8 mL lysogeny broth (LB; all other pathogens) in 50 mL tubes at 37°C and 220 rpm agitation. Following two washing steps with 0.8% NaCl, we adjusted the overnight cultures to an optical density at 600 nm (OD600) of 1. For overnights of environmental isolates, we followed the same procedure when working with low sample sizes, with the only difference being that culturing occurred at 28°C. For the large-scale screening experiments, we grew environmental isolates in 200 µL LB in 96-well plates shaken at 170 rpm. Cultures from plates were then directly used for experiments. For all main experiments (screen for bioactive pyoverdines and dose–response curves), we used CAA medium (1% casamino acids, 5 mM K2HPO4 * 3H2O,1 mM MgSO4*7 H2O, 25 mM HEPES buffer). This medium contains low levels of iron, triggering pyoverdine production ([Cunrath et al., 2016]).
(§2) To determine the inhibition potential of crude- and HPLC-purified pyoverdines, as well as ferribactin, we subjected A. baumannii. K. pneumoniae, P. aeruginosa, and S. aureus to serially diluted extracts. For this, the extracts were dissolved in CAA medium, filter sterilized, and diluted in the same medium. Bacterial overnight cultures were grown and prepared as described above and added to a total of 200 µL medium on a 96-well plate with four replicates per extract dilution. […] We incubated the plates at 37°C statically in the plate reader and measured the OD600 every 15 min for 24 hr. Before each measurement, plates were shaken for 15 s. We repeated the experiment up to five times with different initial extract starting concentrations. This was done to ensure that the full dose response to pyoverdine was captured. Thus, sample size per individual extract concentration varied between 4 and 20 replicates. We subtracted the blank values and the background values caused by the treatment of the respective extract concentration from the measured growth data and calculated the integral (area under the growth curve) using the R package Growthcurver ([Sprouffske and Wagner, 2016]). We then expressed growth relative to the control medium, where bacteria grew in CAA without extract or antibiotic addition. Finally, we plotted extract/antibiotic concentration vs. relative growth and fitted dose–response curves (see below).

Another series is described as follows: in vitro. The series is classed as cell-based. As to conditions: sheep. On the procedure:
To determine the hemolytic activity of pyoverdines, we quantified sheep erythrocyte hemolysis at different pyoverdine concentrations. We first centrifuged 25 mL of fresh sheep blood (Chemie Brunschwig AG, Switzerland) in a 50 mL tube at 1500 × g for 5 min at 4°C. Plasma was then gently aspirated, replaced by PBS, and tubes were gently inverted to mix. This washing procedure was repeated three times. Pyoverdines were diluted in PBS to final relative concentrations of 1, 0.5, 0.25, 0.2, 0.02, and 0.002. PBS and 0.1% Triton X-100 (Sigma-Aldrich) served as negative and positive control, respectively. 100 µL erythrocyte solution was mixed with either 100 µL pyoverdine solution or the controls in a 96-well plate in triplicates. Following an incubation at 37°C and 120 rpm for 1 hr, the plate was centrifuged at 1036 × g for 5 min at 4°C. Subsequently, 100 µL of the supernatant were transferred to a new 96-well plate. Hemoglobin release was measured at 570 nm in the plate reader and the percent hemolysis was calculated relative to the positive control [% hemolysis = (OD570 of sample – negative control)/(positive control – negative control)].

The test system of series [4] is A. baumannii. The series is described as follows: Infection model: treatment of infected larvae. The series is classed as in vivo, Galleria mellonella. The settings on record: injected 4 hr post infection. On the procedure: (§3) We tested the efficacy of pyoverdine to treat infections in larvae of the host model G. mellonella. All larvae were ordered from a local vendor (Bait Express GmbH, Basel, Switzerland) and stored without food at 16°C in the dark for up to 3 days. In a first step, we determined the mean weight of 336 final instar G. mellonella larvae (mean = 435 mg). For all subsequent experiments, we weighed the larvae and only used individuals with a mean weight ±20% (range: 340–530 mg). Larvae were immobilized on ice for 15 min, surface-sterilized with 70% ethanol, and randomly distributed to individual wells on 24-well plates. Ten larvae were used per infection–treatment combination. To inject bacteria and administer treatments, we used sterile needles (Sterican 26G, 0.45 × 12 mm [Braun]) and syringes (1 mL injekt-F [Braun]) attached to a syringe pump (New Era Pump Systems Inc, model NE-300) set to a flow rate of 5 mL/hr. For both infection and treatment delivery, a volume of 10 µL per larvae was injected between the posterior larval prolegs.
(§4) On the pathogen side, we determined the LD50 (lethal dose, killing 50% of the larvae) for A. baumannii (1.8 * 10^5 CFU/larvae) and K. pneumoniae (8.9 * 10^5 CFU/larvae) (Figure 5—figure supplement 1). For P. aeruginosa, we use 56 CFU/larvae because all doses tested killed 100% of the larvae (Figure 5—figure supplement 1). As negative control, we administered 10 µL/larvae of sterile PBS. Following infections, larvae were individually placed in wells of 24-well plates and incubated at 37°C in the dark for 4 hr.
(§5) On the treatment side, we used pyoverdines 3A06, 3G07, and s3b09 at three concentrations that were non-toxic for the NSC-34 cells. For this, we prepared stocks of 60 mg/mL, 30 mg/mL, and 6 mg/mL of crude pyoverdines. Since the injected treatment volume was 10 µL per larvae, the final pyoverdine concentrations were 0.6 mg, 0.3 mg, and 0.06 mg per larvae, respectively. When scaling theses concentrations to the doses used for the […] dose–response curves (Figure 4), the relative pyoverdine concentrations were 0.1, 0.05, and 0.01. Pyoverdine treatments were administered 4 hr after the infection through injections. Prior to treatment, larvae were immobilized on ice for 15 min. We also applied treatments to larvae infected with sterile PBS to quantify potential negative effects of the treatment in the absence of an infection. Following treatment, larvae were put back to their allocated well of the 24-well plate and kept at 37°C in the dark.
(§6) From the 12th hour post infection (hpi) onward, we regularly checked the survival of all larvae for a total of 48 hpi. Specifically, larvae were poked with a pipette tip and individuals not responding to the physical stimulation were considered dead. […]

The test system of series [5] is K. pneumoniae. As to the kind of experiment: Infection model: treatment of infected larvae. The series is classed as in vivo, Galleria mellonella. As to the method: as §3, §4, §5, §6
Series [6] has as its system A. baumannii. As to the kind of experiment: Dose–response growth inhibition in CAA medium. The series is classed as cell-based, Acinetobacter baumannii. The settings on record: for inhibition of A. baumannii with iron supplementation: crude pyoverdine. On the procedure:
as §1, §2

In another series the test system is S. aureus JE2. The series is described as follows: Dose–response growth inhibition in CAA medium. The series is classed as cell-based, Staphylococcus aureus. As to the method:
as §1, with “This medium contains low levels of iron, triggering pyoverdine production ([Cunrath et al., 2016]).” left out
(§7) To determine the inhibition potential of crude- and HPLC-purified pyoverdines, as well as ferribactin, we subjected A. baumannii. […] We incubated the plates at 37°C statically in the plate reader and measured the OD600 every 15 min for 24 hr. […] We subtracted the blank values and the background values caused by the treatment of the respective extract concentration from the measured growth data and calculated the integral (area under the growth curve) using the R package Growthcurver ([Sprouffske and Wagner, 2016]). […]

The next series deals with P. aeruginosa PAO1. The series is described as follows: Dose–response growth inhibition in CAA medium. The series is classed as cell-based, Pseudomonas aeruginosa. As to conditions: HPLC-purified ferribactin, concentration gradient. As to the method: as §1, with “This medium contains low levels of iron, triggering pyoverdine production ([Cunrath et al., 2016]).” left out
as §7

Where [7] appears, read: HPLC-purified ferribactin, concentration gradient.

In brackets after ≈: the same amount, converted by molar mass. Like-named read-outs stand apart in the source and are kept apart here. Square brackets hold non-standard residues; d marks the D form. Side chains are listed from the residue outwards. Peptide text beside a SMILES is read from it. * marks the point of attachment. ξ: configuration not given here. X1 = O=C(O)CCC(=O)NC1=Cc2cc(O)c(O)cc2N2C1=NCCC2C(=O)*; NH(1-OH-2-oxopiperidin-3-yl) = O=C1C(N*)CCCN1O; ξAsp(3ξ-OH) = NC(C(=O)O)C(O)C(=O)O

In the case of `Cc1c(O)c(=O)ccn1C` [deferiprone], in the series on P. aeruginosa (ref Thompson et al., Visca et al.), the “minimum inhibitory concentration (MIC) relative to plasma levels in human therapy” value was “up to 36.7 times”. For the same molecule, the “growth suppression at sub-MIC levels” value is listed as “only partially suppressed the growth” in the series with P. aeruginosa (ref Visca et al., de Léséleuc et al.) and “only partially suppressed the growth” with A. baumannii [1].

With `CC(=O)N(O)CCCCCNC(=O)CCC(=O)N(O)CCCCCNC(=O)CCC(=O)N(O)CCCCCN` [desferoxamine], in series [2] (ref Elalfy et al., 2023), the iron affinity is 10^27 M^–1.

Consider `O=C(N[C@H]1COC(=O)[C@@H](NC(=O)c2cccc(O)c2O)COC(=O)[C@@H](NC(=O)c2cccc(O)c2O)COC1=O)c1cccc(O)c1O` [enterobactin], for which, in series [2] (ref Harris et al., 1979), the iron affinity is recorded as 10^52 M^–1.

For `CC(O)C(NC(=O)C(CO)NC(=O)C(NC(=O)C(N)CCCCNC(=O)C(CC(=O)O)NC(=O)C1CCN=C2C(NC(=O)CCC(=O)O)=Cc3cc(O)c(O)cc3N21)C(O)C(=O)O)C(=O)NC(CO)C(=O)NC(CCCCN)C(=O)NC1CCCN(O)C1=O` (stereo not shown) [pyoverdine 3A06] (H-K([Asp-X1])[ξAsp(3ξ-OH)]STSK-{NH(1-OH-2-oxopiperidin-3-yl)}; configuration not given here), the “growth reduction (model fit)” value in the series on K. pneumoniae [3] (crude-purified pyoverdine) is reported as 9–12%. Besides, the hemolysis at 1 h, 1 relative concentration in “in vitro” is 2.01%. Besides, the “reduction of the risk of death (hazard) vs untreated infection” value was 57.9% in the series on A. baumannii [4] (relative concentration 0.05, 48 hr, Cox regression) and 51.5% in the series with K. pneumoniae [5] (relative concentration 0.01, injected 4 hr post infection, 48 hr, Cox regression).

For `CC(NC(=O)C(NC(=O)C(CO)NC(=O)C(NC(=O)C(N)CCCCNC(=O)C(CC(=O)O)NC(=O)C1CCN=C2C(NC(=O)CCC(=O)O)=Cc3cc(O)c(O)cc3N21)C(O)C(=O)O)C(C)O)C(=O)NC(C(=O)NC(CCCCN)C(=O)NC1CCCN(O)C1=O)C(C)O` (stereo not shown) [pyoverdine s3b09] (H-K([Asp-X1])[ξAsp(3ξ-OH)]STATK-{NH(1-OH-2-oxopiperidin-3-yl)}; configuration not given here), the IC50 – broadly, the midpoint of a concentration-inhibition curve – in the series on A. baumannii [6] (Acinetobacter baumannii, HPLC-purified pyoverdine, CAA medium, growth relative to untreated control) is 5.04 mg/L (≈ 3.73 µM); in the series on S. aureus JE2 (Staphylococcus aureus, JE2, HPLC-purified pyoverdine, growth relative to untreated control), 12.2 mg/L (≈ 9.01 µM). Besides, the “inhibition of A. baumannii with iron supplementation” value was “greatly reduced” in the series on A. baumannii [6] (CAA medium + 40 µM FeCl3) and “completely stalled” with A. baumannii [6] (CAA medium + 200 µM FeCl3). The “growth reduction (model fit)” value with K. pneumoniae [3] (HPLC-purified pyoverdine) and with K. pneumoniae [3] (crude-purified pyoverdine) was 9–12% in each case. Also, the hemolysis at 1 h, 1 relative concentration in the series “in vitro” was determined as 5.92%. The “reduction of the risk of death, significance” value in the series on A. baumannii [4] (same tendency observed, z = –1.496, p=0.135) is on record as “not significant”. Moreover, the “relationship between pyoverdine concentration and time-to-death” value in the series on K. pneumoniae [5] (relative concentrations 0-0.1, quadratic term significant) is reported as “hump-shaped”.

acinetobactin: the iron association constant in [2] is 10^26 M^–1.

Turning to ferribactin [reference compound], the growth inhibition result in the series on A. baumannii [6] (HPLC-purified ferribactin, concentration gradient, CAA medium) is on record as “no growth inhibition”; in the series on S. aureus JE2 (setting [7]) it was “no growth inhibition”; in the series on K. pneumoniae [3] (setting [7]) it was “no growth inhibition”; in the series with P. aeruginosa PAO1 it was “no growth inhibition”.

Consider fimsbactin, for which the iron association constant in series [2] was 10^27 M^–1.

Turning to pyoverdine, in series [2] (ref Meyer and Abdallah, 1978), the “iron affinity (Ka, association constant)” value is 10^32 M^–1.
